Reference: patent US20230117252A1, “CELL SHEET HAVING FIBROSIS INHIBITORY ACTION” (NATIONAL UNIVERSITY CORPORATION TOTTORI UNIVERSITY, priority 2017, published 2023)

Experiments:
MMP-1 = MMP-1 activity of trypsin-treated cell suspension and cell sheet at different seeding densities (Example 1); format: cell-based; conditions: for MMP1 average: UE7T-13 cells
Protocol: (§1) In the present disclosure, the MMP activity can be determined by measuring the enzyme activity using a fluorescence resonance energy transfer (FRET) peptide that generates fluorescence upon cleavage by MMP.
(§2) After four days, the temperature-responsive culture dishes were moved into a 32° C., 5% CO2 incubator, and sheets were made. The cell sheets obtained were washed three times with PBS, then homogenized in the buffer of an MMP activity measurement kit (SensoLyte® 520 MMP-1 Assay Kit Fluorimetric, (ANASPEC Co.: Cat #: AS-71150) and SensoLyte® 520 MMP-14 Assay Kit Fluorimetric (ANASPEC Co.: Cat #AS72025)). The cells seeded in the ordinary cell culture dishes were dispersed in 0.025% trypsin/0.1 mM EDTA, recovered by centrifugation, then washed three times with PBS and homogenized in the buffer for the MMP activity measurement. The results in FIG. 1 show the results on MMP-1 (FIG. 1A) and MMP-14 (FIG. 1B) per cell. […] It was a surprising result that the MMP-1 activity per cell was increased by increasing the seeding density.

MMP-14 = MMP-14 activity of trypsin-treated cell suspension and cell sheet at different seeding densities (Example 1); format: cell-based; conditions: for MMP14 average: UE7T-13 cells
Source text: as §1
as §2, with “Bone marrow-derived mesenchymal stem cells (UE7T-13 cell line) were suspended in DMED/10% FBS and seeded to make respective seeded cell densities of 3.6×10^4 cells/cm^2, 5.4×10^4 cells/cm^2, and 7.2×10^4 cells/cm^2 in temperature-responsive culture dishes and ordinary cell culture dishes. After” for “After”

[1] = seeding density 1.8 × 10^4 cells/cm^2, per cell
[2] = seeding density 3.6 × 10^4 cells/cm^2, per cell
[3] = seeding density 5.4 × 10^4 cells/cm^2, per cell
[4] = seeding density 7.2 × 10^4 cells/cm^2, per cell

With Trypsin the “increase of MMP activity when the seeding density was increased four-fold” value (MMP-1; Example 1, MMP-1 and MMP-14 together) was “about four-fold”, the “increase of MMP-1 activity when the seeding density was increased four-fold” value (MMP-1; FIG. 1A) was “about four-fold” and the MMP1 average (MMP-1; [1]) was 103548.8. For the same substance, the MMP1 average (MMP-1; [2]) was 242642.7, the MMP1 average (MMP-1; [3]) was 326635.6 and the MMP1 average (MMP-1; [4]) was 462976. For the same substance, the “increase of MMP-14 activity when the seeding density was increased four-fold” value (MMP-14; FIG. 1B) was “about four-fold”, the MMP14 average (MMP-14; [1]) was 156184.1 and the MMP14 average (MMP-14; [2]) was 353634.5. It also gave an MMP14 average (MMP-14; [3]) of 427591.6 and an MMP14 average (MMP-14; [4]) of 576164.
